Measured values: ChEMBL document CHEMBL1149552, “Praziquantel derivatives I: Modification of the aromatic ring” (2007)
Converted amounts (≈) assume the structure as drawn.

Columns and labels:
Format in all cases: functional
Schistosoma mansoni [1] = test: Antischistosomal activity against Schistosoma mansoni assessed as 100% killing of schistosomes
Schistosoma mansoni [2] = test: Antischistosomal activity against Schistosoma mansoni assessed as complete spastic paralysis
Schistosoma mansoni [3] = test: Antischistosomal activity against Schistosoma mansoni assessed as shcistomes paralysis relative to Praziquantel
Schistosoma mansoni [4] = test: Antischistosomal activity against Schistosoma mansoni assessed as 100% killing of shcistomes relative to Praziquantel

Row | Structure (SMILES) | MLC (Schistosoma mansoni [1]) | Activity (Schistosoma mansoni [2]) | Activity (Schistosoma mansoni [3]) | Activity (Schistosoma mansoni [4])
1 | O=C(C1CCCCC1)N1CC(=O)N2CCc3ccccc3C2C1 (stereo unspecified) [PRAZIQUANTEL] | 3 µM (≈ 0.937 µg/mL) | 1 µM | – | –
2 | Nc1ccc(C(=O)N2CC(=O)N3CCc4ccccc4C3C2)cc1 (stereo unspecified) | 18 µM (≈ 5.78 µg/mL) | 7 µM | 14.3% | 16.6%
3 | Nc1ccc2c(c1)C1CN(C(=O)C3CCCCC3)CC(=O)N1CC2 (stereo unspecified) | 28 µM (≈ 9.17 µg/mL) | 10 µM | 10% | 10.7%
4 | CC(=O)Nc1ccc2c(c1)C1CN(C(=O)C3CCCCC3)CC(=O)N1CC2 (stereo unspecified) | >300 µM | >300 µM | <0.3% | <1%
5 | O=C(C1CCC(O)CC1)N1CC(=O)N2CCc3ccccc3C2C1 (stereo unspecified) | 200 µM (≈ 65.7 µg/mL) | 75 µM | 1.3% | 1.5%
6 | Nc1cccc(C(=O)N2CC(=O)N3CCc4ccccc4C3C2)c1 (stereo unspecified) | 12 µM (≈ 3.86 µg/mL) | 7 µM | 14.3% | 25%
7 | O=C(C1CCCCC1)N1CC(=O)N2CCc3ccc([N+](=O)[O-])cc3C2C1 (stereo unspecified) | >300 µM | >300 µM | <0.3% | <1%
